The values below come from patent publication US20170044150A1, “IDENTIFICATION OF COMPOUNDS WHICH INHIBIT ATG8-ATG3 PROTEIN-PROTEIN INTERACTION AND THEIR USE AS ANTIPARASITICAL AGENTS” (THE JOHNS HOPKINS UNIVERSITY, priority 2014, published 2017).

Data set [1] relates to PfAtg8-PfAtg3 interaction. Description: SPR protein-protein interaction assay, PfAtg8-PfAtg3 (VLS compounds). The conditions noted are these: 500 μM. Format: binding, P. falciparum. Here is the method:
Surface Plasmon Resonance (SPR) protein-protein interaction assay. All measurements were carried out on a BiaCore 3000 instrument. We used the previously described SPR competition assay to test inhibition of the PfAtg8-PfAtg3 and hLC3-hAtg3 interaction. The standard running buffer was 10 mM HEPES, 150 mM NaCl, 0.01% Tween 20, adjusted to pH 7.5. Prior to performing SPR assays, all solutions were sterile filtered and degassed for 1 h at room temperature. For small molecule inhibitor studies, the same running buffer was supplemented with 1% DMSO. All dose dependency measurements were carried out in triplicate and corrected for DMSO absorption effects using double referencing with interspersed blank injections and an untreated flow cell on the SPR chip and the SPR analysis software Scrubber 2.0 (BioLogics). For each interaction pair, a new CM5 SPR chip was used. To exclude surface decay during the experiment, positive control injections were interspersed every 12th injection. For all interaction studies, the Atg3 homologue was immobilized and the corresponding Atg8 partner was passed as an analyte over the chip in either the presence or absence of small molecule inhibitors, dissolved to 100 mM in 100% DMSO and tested at 500 μM final concentration. Prior to the immobilization of Atg3 to an SPR chip, a pH scouting from pH 6.0 to pH 4.0 in intervals of 0.5 pH units was carried out to determine the best pre-concentration conditions for immobilization. Briefly, flow cells of an SPR chip were activated using N-hydroxysuccinimide (NHS) and 1-ethyl-3-(3-dimethylaminopropyl)carbodiimide (EDC) for 7 min with a flow rate of 20 μl/min. For PfAtg3 immobilization, a solution of 50 μg/ml of PfAtg3 in 10 mM sodium acetate pH 5.0 was passed over one flow cell until >500 Response Units (RU) were captured. The same procedure was followed for the immobilization of hAtg3. Activated free binding sites on the chip were blocked using 1 M ethanolamine for an additional 7 min. All experiments were carried out at 25° C. with a 40 μl/min flow rate and 75 s contact time, followed by a 1 min dissociation time and a 25 μl regeneration injection of 2 M MgCl2.
The dose-response curves were used to determine the approximate concentration of analyte (PfAtg8 or hLC3) needed to obtain a particular response unit (RU), typically in the range of 100-150 RU's. A fixed amount of analyte was then passed over the chip resulting in at least 100-150 response units (RU) in the absence of small molecules.

In data set [2] the test system is P. falciparum 3D7 blood stages. The conditions noted are these: asterisk / PubChem reported values; read-out: IC50 Blood stage, derived from the literature; cited from earlier work.
Data set [3] addresses PfAtg8-PfAtg3 interaction (Plasmodium falciparum, UniProt Q8IJK2). The format is binding, P. falciparum.
Another data set concerns P. falciparum 3D7. Description: SYBR Green I growth inhibition assay, blood stage. Format: cell-based. The conditions noted are these: Plasmodium falciparum. Here is the method: P. falciparum blood stage culturing. P. falciparum 3D7 and FCR3 cultures were maintained using modified, previously published methods at 37° C., 2% hematocrit of human red blood cells (Science 1976, 193, 673-675). Complete culture media consisted of sterile RPMI 1640 media (Life Technologies), supplemented with 10% human serum, 0.005% hypoxanthine, and buffered with final concentrations of 0.6% HEPES and 0.26% NaHCO3. The FCR3 strain was maintained at 3% CO2 and 5% O2, 92% N2 atmosphere, while the 3D7 strain was maintained at 5% CO2, 5% O2, 90% N2 atmosphere.
SYBR Green I growth inhibition assay. 10 μL of 10× compound diluted in RPMI 1640 media (Gibco) with a constant concentration of 1% DMSO was added to a 96 well plate (Costar), 90 μL of 1.5% ring stage, synchronized with 5% w/v sorbitol P. falciparum 3D7 parasites, 1% hematocrit, in culture media with 10% v/v human serum with 10 μg/mL gentamycin. Each compound concentration and 1% v/v DMSO controls were run in triplicate. Plates were incubated at 37° C. in 5% O2, 5% CO2 and 90% N2 for 72 hours. Plates were frozen, thawed, and incubated with 100-μL 2× SYBR green in lysis buffer (20 mM Tris pH 7.5, 5 mM EDTA, 0.008% Saponin, 0.08% TritonX-100) in the dark for at least one hour. Fluorescence was measured with a plate reader (HTS 7000, Perkin Elmer) at excitation/emission wavelengths of 485/535 nm.
Plasmodium parasite growth inhibition assay. P. falciparum 3D7 parasites were cultured as previously described (J Med Chem 57:4521-4531(2014)). Briefly, the parasites were cultured in 10% v/v human serum with 10 μg/mL gentamycin and synchronized with 5% w/v sorbitol. 1.5% ring stage parasites were added to 96 well plates (Costar) containing serial dilutions, performed in triplicate, of compound in RPMI 1640 media (Gibco). Plates were incubated at 37° C. in 5% O2, 5% CO2, and 90% N2 for 72 h. Plates were frozen, thawed, and incubated with 100 μL 2× SYBR green in lysis buffer (20 mM Tris pH 7.5, 5 mM EDTA, 0.008% Saponin, 0.08% TritonX-100) in the dark for 1 h. Fluorescence was measured with a plate reader (HTS 7000, PerkinElmer) at excitation/emission wavelengths of 485/535 nm.

Where [4] appears, read: inhibition of PfAtg8-PfAtg3 interaction.

Read-outs that look alike come from different tables or passages of the source.

Sequence of PfAtg8-PfAtg3 interaction (Plasmodium falciparum, UniProt Q8IJK2) (Q8IJK2 whole entry C32I/C119S/C122S, form open): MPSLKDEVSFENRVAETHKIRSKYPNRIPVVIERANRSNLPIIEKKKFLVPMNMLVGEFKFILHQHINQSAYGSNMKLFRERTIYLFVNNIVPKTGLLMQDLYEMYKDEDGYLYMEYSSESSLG

Regarding `O=C(NCC1Cc2cccc(-c3ccncc3)c2O1)c1csc2c1CCCC2` (stereo not shown) [Compound C11], the “precipitation at the concentration used in the assay” value (“precipitation” for short) in data set [1] is given as “either precipitated or caused protein precipitation”.
Same read-out and setting: then `CCc1c(C(=O)NCc2csc(-c3cnccn3)n2)[nH]c2ccccc12` [Compound C19, 3-ethyl-N-([2-(pyrazin-2-yl)-1,3-thiazol-4-yl]methyl)-1H-indole-2-carboxamide], with “either precipitated or caused protein precipitation”.
The IC50 is the midpoint of a concentration-inhibition curve. Take `O=C(Nc1nc(-c2ccccn2)cs1)c1ccccc1Br` [Compound 3, 2-bromo-N-(4-pyridin-2-yl-1,3-thiazol-2-yl)benzamide]: in data set [2], the IC50 was 1580 nM.
`CSc1ccccc1C(=O)Nc1nc(-c2ccccn2)cs1` [Compound 2, 2-methylsulfanyl-N-(4-pyridin-2-yl-1,3-thiazol-2-yl)benzamide]: the IC50 is 200 nM in data set [2] and 15000 nM in data set [3] (read-out: IC50 SPR, inhibition of PfAtg8-PfAtg3 interaction). Besides, the “LEAN (SPR)” value in data set [3] (-log (IC50)/number of heavy atoms) came to 0.22.
Regarding `Cc1ccc(-c2cc3c(SCC(=O)Nc4cc(C(F)(F)F)ccc4Cl)nccn3n2)cc1` [Compound 4, N-[2-chloro-5-(trifluoromethyl)phenyl]-2-[2-(4-methylphenyl)pyrazolo[1,5-a]pyrazin-4-yl]sulfanylacetamide], the “IC50 SPR” value in data set [3] (setting [4]) is listed as “None”.
Take `O=C(NCc1csc(-c2cnccn2)n1)c1cc2sccc2[nH]1` [Compound C30, N-([3-(pyrazin-3-yl)-1,3-thiazol-4-yl]methyl)-4H-thieno[3,2-b]pyrrole-5-carboxamide]: the “precipitation” value in data set [1] is given as “either precipitated or caused protein precipitation”.
With `CCN(CC)CCCC(C)Nc1ccnc2cc(Cl)ccc12` (stereo not shown) [chloroquine, reference compound], the IC50 with P. falciparum 3D7 (3D7) came to 3 ± 2 nM.
For `COC(OC)c1ccc(C(=O)Nc2nc(-c3ccccn3)cs2)cc1` [Compound 9, 4-(Dimethoxymethyl)-N-[4-(pyridin-2-yl)-1,3-thiazol-2-yl]benzamide], in the data set on P. falciparum 3D7 (3D7, two to three experiments, read-out: average IC50), the IC50 was found to be 1480 ± 600 nM.
In the case of `CN(C)c1ccc(N2C(N)=NC(N)=NC2(C)C)cc1` [Compound 5, 1-[4-(dimethylamino)phenyl]-6,6-dimethyl-1,3,5-triazine-2,4-diamine], in data set [3] (setting [4]), the “IC50 SPR” value is listed as “None”.
In the case of `O=C(NCc1ccco1)C1CCN(S(=O)(=O)c2ccc(Br)cc2)CC1` [Compound C13, 1-(4-bromobenzene-sulfonyl)-N-(furan-2-ylmethyl)piperidine-4-carboxamide], in data set [1], the “precipitation” value was “either precipitated or caused protein precipitation”.
For `Brc1ccc(Nc2nc3ccccc3nc2Nc2ccc(Br)cc2)cc1` [Compound 6, 2-N,3-N-bis(4-bromophenyl)quinoxaline-2,3-diamine], the “IC50 SPR” value in data set [3] (setting [4]) is “None”.
